In patent publication US12071404B2, “Aza (indole)-, benzothiophene-, and benzofuran-3-sulfonamides” (UCB Pharma GmbH, priority 2016, dated 2024):

Tests used:
[1] = biological target: T1, GPR17 (Homo sapiens, UniProt Q13304); assay: Calcium mobilization functional assay (GPR17 Ca2+ assay); type: cell-based; parameters: host or cells: Flp-In T-REx CHO; settings: CHO hGPR17 cells, inhibition of 50 nM MDL29,951, Calcium 5 dye, FLIPR; read-out: Ca2+ assay pIC50 (converted)
Procedure, shortened: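 pIC50 values were fitted with a 4-parameter logistic curve. They reflect test-compound inhibition of cytosolic Ca2+ release evoked by 50 nM MDL29,951, tracked as Calcium 5 fluorescence at room temperature. Cells were CHO Flp-In T-REx stably carrying human GPR17, induced with doxycycline 1 μg/mL for 16-20 h.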

[2] = biological target: T1, GPR17; assay: cAMP accumulation functional assay (HTRF, Schild analysis); type: cell-based; parameters: host or cells: Flp-In T-REx CHO; settings: CHO hGPR17 cells, Schild analysis vs MDL29,951, 5 μM forskolin, read-out: cAMP assay pA2 (converted)
Description: Flp-In T-REx CHO cells stably expressing human GPR17 receptor (CHO hGPR17) from Evi Kostenis' lab (Bonn University, Germany) were cultured at 37° C. in a humidified atmosphere of 5% CO2. Cells were grown in DMEM with Nutrient Mixture F-12 supplemented with hygromycin B (500 μg/mL) and blasticidin (30 μg/mL). Expression from the Flp-In locus was induced by treatment with doxycycline (1 μg/mL) for 16-20 h prior assays.
GPR17 activation can also recruit Gi-type G-protein signaling, resulting in a decrease of intracellular cyclic adenosine monophosphate (cAMP). Intracellular cAMP changes can be measured using the HTRF cAMP dynamic assay kit from CisBio (Codolet, France). Using homogenous time-resolved fluorescence technology (HTRF), the assay is based on competition between native cAMP produced by cells and cAMP labelled with the dye d2. The tracer binding was determined by an anti-cAMP antibody labeled with cryptate.
CHO hGPR17 were detached with PBS containing EDTA and dispatched in black 384-well plates with 5,000 cells per well. Cells were first incubated for 30 minutes at room temperature in HBSS Hepes (pH 7.4) containing vehicle or varying concentrations of test GPR17 antagonist/inverse agonist compounds. […] After 60 minutes incubation at room temperature, the reaction is terminated and the cells lysed by adding the d2 detection reagent and the cryptate reagent in 10 μL lysis buffer each according to manufacturer's instructions. After 60 minutes incubation, changes in cAMP concentrations are measured according to manufacturer's instructions using an Envision plate reader with laser excitation. All incubations were performed in duplicate. Data was analyzed using GraphPad Prism software using the 4-parameter logistic equation to measure MDL29,951 pEC50s in absence and presence of GPR17 antagonist/inverse agonist test compounds. Dose ratio (DR) were plotted against antagonist concentrations and Schild analysis provided estimated affinity pA2 of GPR17 antagonist/inverse agonist test compounds.
The activities of the Example compounds tested are depicted in the table below. The activity ranges A, B and C refer to pA2 values in the cAMP assay as follows: “A”: pA2<7.5, “B”: pA2 7.5<x≤8.5, “C”: pA2>8.5.

T1 sequence (Q13304 whole entry): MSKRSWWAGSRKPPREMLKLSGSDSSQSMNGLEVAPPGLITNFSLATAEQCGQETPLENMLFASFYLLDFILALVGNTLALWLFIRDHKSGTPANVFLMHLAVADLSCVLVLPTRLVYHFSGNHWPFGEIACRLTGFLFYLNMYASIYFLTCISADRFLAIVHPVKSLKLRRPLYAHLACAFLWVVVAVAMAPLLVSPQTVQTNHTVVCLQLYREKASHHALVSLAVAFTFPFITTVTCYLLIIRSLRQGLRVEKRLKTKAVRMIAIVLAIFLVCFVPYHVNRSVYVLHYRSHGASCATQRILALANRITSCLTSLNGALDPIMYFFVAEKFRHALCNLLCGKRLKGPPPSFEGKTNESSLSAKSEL

## N#Cc1cc(F)c(NS(=O)(=O)c2c[nH]c3cc(Cl)ccc23)cc1F [Compound I-185, 6-chloro-N-(4-cyano-2,5-difluorophenyl)-1H-indole-3-sulfonamide]
[1]
  IC50: < 3.16 nM
[2]
  Kb: < 3.16 nM

## C#Cc1ccc(NS(=O)(=O)c2c[nH]c3nc(Br)ccc23)cc1 [Compound I-85, 6-bromo-N-(4-ethynylphenyl)-1H-pyrrolo[2,3-b]pyridine-3-sulfonamide]
[1]
  IC50: 3.16 to 31.6 nM
[2]
  Kb: 3.16 to 31.6 nM

## O=S(=O)(Nc1cccc2nsnc12)c1c[nH]c2cc(Br)ccc12 [Compound I-110, N-(2,1,3-benzothiadiazol-4-yl)-6-bromo-1H-indole-3-sulfonamide]
[1]
  IC50: < 3.16 nM
[2]
  Kb: < 3.16 nM

## O=S(=O)(Nc1cccc2nsnc12)c1c[nH]c2nc(Cl)ccc12 [Compound I-93, N-(2,1,3-benzothiadiazol-4-yl)-6-chloro-1H-pyrrolo[2,3-b]pyridine-3-sulfonamide]
[1]
  IC50: 3.16 to 31.6 nM
[2]
  Kb: 3.16 to 31.6 nM

## O=S(=O)(Nc1cccc2nsnc12)c1c[nH]c2cc(C(F)(F)F)ccc12 [Compound I-186, N-(2,1,3-benzothiadiazol-4-yl)-6-(trifluoromethyl)-1H-indole-3-sulfonamide]
[1]
  IC50: 3.16 to 31.6 nM
[2]
  Kb: 3.16 to 31.6 nM

## O=S(=O)(Nc1ccc(I)cc1F)c1c[nH]c2cc(Cl)ccc12 [Compound I-140, 6-chloro-N-(2-fluoro-4-iodophenyl)-1H-indole-3-sulfonamide]
[1]
  IC50: < 3.16 nM
[2]
  Kb: < 3.16 nM

## O=S(=O)(Nc1ccc(C(F)(F)F)cc1F)c1c[nH]c2nc(Cl)ccc12 [Compound I-296, 6-chloro-N-[2-fluoro-4-(trifluoromethyl)phenyl]-1H-pyrrolo[2,3-b]pyridine-3-sulfonamide]
[1]
  IC50: 3.16 to 31.6 nM
[2]
  Kb: 3.16 to 31.6 nM

## CS(=O)(=O)c1ccc2c(S(=O)(=O)Nc3cccc4c3OC(F)(F)O4)c[nH]c2c1 [Compound I-240, N-(2,2-difluoro-1,3-benzodioxol-4-yl)-6-methylsulfonyl-1H-indole-3-sulfonamide]
[1]
  IC50: > 31.6 nM
[2]
  Kb: > 31.6 nM

## CS(=O)(=O)c1ccc2c(S(=O)(=O)Nc3ccc(I)cc3F)c[nH]c2c1 [Compound I-48, N-(2-fluoro-4-iodophenyl)-6-(methylsulfonyl)-1H-indole-3-sulfonamide]
[1]
  IC50: 3.16 to 31.6 nM
[2]
  Kb: 3.16 to 31.6 nM

## COc1ccc2c(S(=O)(=O)Nc3ccc(Br)cc3F)c[nH]c2c1 [Compound I-293, N-(4-bromo-2-fluorophenyl)-6-methoxy-1H-indole-3-sulfonamide]
[1]
  IC50: 3.16 to 31.6 nM
[2]
  Kb: 3.16 to 31.6 nM

## COc1ccc2c(S(=O)(=O)Nc3nc(OC)c(Cl)cc3F)c[nH]c2c1Cl [Compound I-356, 7-chloro-N-(5-chloro-3-fluoro-6-methoxypyridin-2-yl)-6-methoxy-1H-indole-3-sulfonamide]
[1]
  IC50: 3.16 to 31.6 nM
[2]
  Kb: 3.16 to 31.6 nM

## COc1ccc2c(S(=O)(=O)Nc3cc(F)c(C#N)cc3OC)c[nH]c2c1 [Compound I-288, N-(4-cyano-5-fluoro-2-methoxyphenyl)-6-methoxy-1H-indole-3-sulfonamide]
[1]
  IC50: < 3.16 nM
[2]
  Kb: 3.16 to 31.6 nM

## O=S(=O)(Nc1ncc(C(F)(F)F)cc1F)c1c[nH]c2cc(Cl)ccc12 [Compound I-297, 6-chloro-N-[3-fluoro-5-(trifluoromethyl)pyridin-2-yl]-1H-indole-3-sulfonamide]
[1]
  IC50: 3.16 to 31.6 nM
[2]
  Kb: < 3.16 nM

## O=S(=O)(Nc1cc(F)c(Cl)cc1F)c1c[nH]c2cc(-c3ccsc3)ccc12 [Compound I-236, N-(4-chloro-2,5-difluorophenyl)-6-(thiophen-3-yl)-1H-indole-3-sulfonamide]
[1]
  IC50: > 31.6 nM
[2]
  Kb: > 31.6 nM

## N#Cc1ccc(NS(=O)(=O)c2c[nH]c3cc(N=[N+]=[N-])ccc23)c(F)c1 [Compound I-335, 6-azido-N-(4-cyano-2-fluorophenyl)-1H-indole-3-sulfonamide]
[1]
  IC50: 3.16 to 31.6 nM
[2]
  Kb: 3.16 to 31.6 nM

## N#Cc1ccc(NS(=O)(=O)c2c[nH]c3c4c(ccc23)CCC4)c(F)c1 [Compound I-150, N-(4-cyano-2-fluorophenyl)-1,6,7,8-tetrahydrocyclopenta[g]indole-3-sulfonamide]
[1]
  IC50: 3.16 to 31.6 nM
[2]
  Kb: < 3.16 nM

## COc1cc(Cl)c(F)cc1NS(=O)(=O)c1c[nH]c2c1ccc1ccccc12 [Compound I-175, N-(4-chloro-5-fluoro-2-methoxyphenyl)-1H-benzo[g]indole-3-sulfonamide]
[1]
  IC50: > 31.6 nM
[2]
  Kb: 3.16 to 31.6 nM

## O=S(=O)(Nc1cc(F)c(Cl)cc1F)c1c[nH]c2cc(OCC(F)(F)F)ccc12 [Compound I-300, N-(4-chloro-2,5-difluorophenyl)-6-(2,2,2-trifluoroethoxy)-1H-indole-3-sulfonamide]
[1]
  IC50: 3.16 to 31.6 nM
[2]
  Kb: 3.16 to 31.6 nM

## O=S(=O)(Nc1cc(F)cc(F)c1Cl)c1c[nH]c2cc(Cl)ccc12 [Compound I-55, 6-chloro-N-(2-chloro-3,5-difluorophenyl)-1H-indole-3-sulfonamide]
[1]
  IC50: 3.16 to 31.6 nM
[2]
  Kb: 3.16 to 31.6 nM

## O=S(=O)(Nc1cc(F)c(Cl)cc1F)c1csc2cc(Cl)ccc12 [Compound I-312, 6-chloro-N-(4-chloro-2,5-difluorophenyl)-1-benzothiophene-3-sulfonamide]
[1]
  IC50: 3.16 to 31.6 nM
[2]
  Kb: 3.16 to 31.6 nM

## O=S(=O)(Nc1cccc2c1OC(F)(F)O2)c1c[nH]c2c1ccc1cccnc12 [Compound I-66, N-(2,2-difluoro-1,3-benzodioxol-4-yl)-1H-pyrrolo[3,2-h]quinoline-3-sulfonamide]
[1]
  IC50: 3.16 to 31.6 nM
[2]
  Kb: 3.16 to 31.6 nM

## CCOC(=O)/C=C/c1cc(F)c(NS(=O)(=O)c2c[nH]c3cc(Cl)ccc23)nc1F [Compound I-330, Ethyl (2E)-3-(6-{[(6-chloro-1H-indol-3-yl)sulfonyl]amino}-2,5-difluoropyridin-3-yl)prop-2-enoate]
[1]
  IC50: 3.16 to 31.6 nM
[2]
  Kb: < 3.16 nM

## CS(=O)(=O)c1ccc2c(S(=O)(=O)Nc3cc4c(cc3F)OC(F)(F)O4)c[nH]c2c1 [Compound I-238, 6-(methylsulfonyl)-N-(2,2,6-trifluoro-1,3-benzodioxol-5-yl)-1H-indole-3-sulfonamide]
[1]
  IC50: 3.16 to 31.6 nM
[2]
  Kb: 3.16 to 31.6 nM

## Cc1cc(F)c(NS(=O)(=O)c2c[nH]c3c(F)c(Cl)ccc23)nc1F [Compound I-355, 6-chloro-N-(3,6-difluoro-5-methylpyridin-2-yl)-7-fluoro-1H-indole-3-sulfonamide]
[1]
  IC50: < 3.16 nM
[2]
  Kb: 3.16 to 31.6 nM

## C=Cc1cc(F)c(NS(=O)(=O)c2c[nH]c3cc(Cl)ccc23)nc1F [Compound I-337, 6-chloro-N-(5-ethenyl-3,6-difluoropyridin-2-yl)-1H-indole-3-sulfonamide]
[1]
  IC50: 3.16 to 31.6 nM
[2]
  Kb: < 3.16 nM

## O=S(=O)(Nc1cc(F)c(Cl)cc1F)c1c[nH]c2cc(Cl)c(Br)cc12 [Compound I-248, 5-bromo-6-chloro-N-(4-chloro-2,5-difluorophenyl)-1H-indole-3-sulfonamide]
[1]
  IC50: 3.16 to 31.6 nM
[2]
  Kb: 3.16 to 31.6 nM

## O=S(=O)(Nc1ncc(Cl)cc1F)c1c[nH]c2cc(Br)ccc12 [Compound I-290, 6-Bromo-N-(5-chloro-3-fluoropyridin-2-yl)-1H-indole-3-sulfonamide]
[1]
  IC50: < 3.16 nM
[2]
  Kb: < 3.16 nM

## O=C1OCc2ccc(NS(=O)(=O)c3c[nH]c4nc(Br)ccc34)cc21 [Compound I-92, 6-bromo-N-(3-oxo-1,3-dihydro-2-benzofuran-5-yl)-1H-pyrrolo[2,3-b]pyridine-3-sulfonamide]
[1]
  IC50: > 31.6 nM
[2]
  Kb: > 31.6 nM
